Where “and” joins values, the source holds several entries; their conditions need not be identical. Equal values may be shown once. Entries after “also recorded” stand apart in the source; their conditions may differ. Each block holds one compound with its values, some of them ahead of it.
Experiments:
[1] = Fluorescence properties of SNAFR-6 (Stokes shift, quantum yield); assay type: physicochemical
Description: The neutral form of SNAFR-6 could be excited from ˜420 nm to ˜530 nm. Its emission was centered at 571 nm. The anionic form could be efficiently excited over a broad range from ˜420 nm to ˜650 nm, with an excitation maximum at 536 nm. The anionic emission ranged from ˜575 nm to ˜850 nm, centered at 733 nm. SNAFR-6 thus has a very large Stokes shift, 197 nm.
FIG. 7 depicts an overlay of the normalized absorption spectrum of SNAFR-6 in 0.1 M NaOH solution, and the NIR emission from its anionic form in phosphate buffer (50 mM, pH 9.3):DMSO 99:1 v/v. The anionic emission at 733 nm was readily excited throughout a ˜200 nm window, a range that includes the common argon ion laser wavelengths of 488 nm and 514 nm. The absorption maximum is located at 536 nm.
The quantum yield of the anionic (NIR) emission of SNAFR-6 in DMSO was 0.09, measured by reference to rhodamine 6G in EtOH. This is a relatively high value for an NIR dye emitting at a wavelength longer than ˜730 nm.

HEp2 cells [2] = experiment: Cellular imaging of live cells (uptake and localization); assay type: cell-based; details: fluorescence imaging
Description: There was a strong signal from the endoplasmic reticulum, and a smaller signal from mitochondria. […] No obvious staining of the plasma membrane was seen. However, since the plasma membrane has a large surface area, a relatively low surface signal might not have been detected. Three different filter sets, DAPI, FITC, and Texas Red, were used to select for wavelengths corresponding to the blue, green, and red emissions of SNAFR-2, respectively. […] However, autofluorescence was minimal with the longer wavelength filter sets, FITC and Texas Red.

[3] = pKa of SNAFR-6 by absorption and fluorescence titration; aggregation in buffered media; assay type: physicochemical
Description: Both the neutral and anionic forms could be excited simultaneously at wavelengths from ˜420 nm to ˜530 nm, a range that includes both the 488 and 514 nm argon ion laser spectral lines. The neutral emission could be selectively measured by using, for example, an FITC filter set. Also, the anionic form can be selectively excited using a longer excitation wavelength, ˜540 nm to ˜650 nm. Anionic emission can be selectively measured, using, for example, common Texas Red filter sets. SNAFR-6 is thus a versatile fluorophore for ratiometric measurements.

HEp2 cells [4] = experiment: Cytotoxicity, CellTiter Blue Cell Viability assay; assay type: cell-based; details: 24 hours, up to 100 μM (FIG. 10), dilutions 10 μM to 1.25 μM
Protocol: Compound toxicity was tested by plating 7500 HEp2 cells per well on a Costar 96-well plate. Cells were allowed to grow for 48 hours and were then fed medium containing twofold dilutions of SNAFR-6 ranging from 10 μM to 1.25 μM. Also, 0.1% Saponin (Sigma) was used as a […] control. Cells were then incubated for 24 hours. Viability was measured using the CellTiter Blue Cell Viability assay (Promega) as per manufacturer's instructions. The fluorescence signal was detected using an excitation wavelength of 520 nm and emission wavelength of 584 nm. Viability was normalized against a scale in which untreated cells were rated 100%, and cells treated with 0.1% saponin were rated 0%. At the concentrations tested, the cytotoxicity of SNAFR-6 was low.

[5] = pKa of SNAFR-2 from absorption and emission spectra as a function of pH; assay type: physicochemical; details: 50 mM phosphate buffer with 0.25% DMSO
Protocol: SNAFR-2 was dissolved in 50 mM phosphate buffer with 0.25% DMSO. As the pH increased, the absorption band centered at 550 nm increased. We attributed this band to the anionic form (A). Concurrently, the absorption band at ca. 460 nm decreased. We attributed the 460 nm band to the neutral form (N). Four isosbestic points were observed, at 484, 394, 327, and 304 nm. The 484 nm isosbestic point is near the 488 nm Ar ion laser line. Thus ratiometric measurements using SNAFR-2 as a probe may be conducted with an Ar ion laser and common, commercially available filter sets.
FIGS. 1A through 1H depict the spectral properties of 30 μM SNAFR-2 in 50 mM phosphate buffer with 0.25% DMSO at various pH values. The arrows indicate the spectral changes as the pH increased in order: 7, 8, 8.5, 9 and 10. A=anionic form. N=neutral form. FIG. 1A depicts Absorption spectra. The * indicates the positions of isosbestic points. FIGS. 1B-D depict excitation spectra, with emission monitored at 400 nm, 540 nm, and 620 nm respectively. FIGS. 1E-H depict emission spectra with excitations at 325 nm, 488 nm, 514 nm, and 543 nm respectively, wavelengths that correspond to common laser lines. All fluorescence spectra were normalized versus the maximum for each data set.
(§1) Most prior organic fluorophores have been limited by a narrow excitation range, which has hindered their use in multiplexing systems with other fluorophores. By contrast, the absorption and excitation spectra of SNAFR-2 allow it to be excited from 260 nm to 600, a range that includes various common laser lines, for example, HeCd at 325 nm, Ar ion at 488 and 514 nm, and HeNe at 543 nm (FIGS. 1A-D). SNAFR-2 is compatible with commercially available filter sets, such as those used in various spectroscopic instruments and fluorescence microscopes. […] The pK*a was calculated as 4.54 or 4.73 at room temperature, determined as pKa-em and pKa-abs, respectively.

[6] = Spectral properties of SNAFR-2 in DMSO and MeOH; assay type: physicochemical; details: for Φ (quantum yield relative to rhodamine 6G in EtOH, Φ = 1): excitation 514 nm
Description: The violet-blue emission increased in these organic solvents as compared to buffer. The green emission was attributed to the neutral form. As expected, the emission corresponding to the anionic form decreased in both solvents.

[7] = Photobleaching decay of SNAFR-2 in MeOH and fluorescein in 0.1 M NaOH; assay type: physicochemical; details: SNAFR-2 in MeOH; excitation 488 nm; at least 1800 s; compared with fluorescein in 0.1 M NaOH
Description: We investigated the photostability of SNAFR-2 in MeOH. […] In MeOH, SNAFR-2 can be excited efficiently at 488 nm, which corresponds to an Ar ion laser line. This wavelength also matches well with the absorbance maximum (λabs=493 nm) of fluorescein in aqueous base. We conducted photostability studies in SNAFR-2 and fluorescein solutions, with the concentration of each selected to have an absorbance of 0.03 at 488 nm. The excitation band-pass was opened to 14 nm, the maximum allowed by the instrument we used. The fluorescence signal was collected using both the S- and T-channels of the instrument. S-channel data were collected through a dual monochromator set to the emission maximum of the particular fluorophore. T-channel data were collected through a 550 nm, long-pass filter. High voltage for the photomultiplier tube (PMT) was set to 950 and 500 V for the S and T channels, respectively. […] Fluorescence intensity was monitored at the emission maximum through a dual monochromator following excitation at 543 nm. […] FIGS. 9A and 9B depict the photobleaching decay of SNAFR-2 in MeOH, and of fluorescein in 0.1 M NaOH, monitored at the emission maximum of each compound (FIG. 9A), or through a 550 nm long-pass filter (FIG. 9B). The fluorescence intensity was normalized for each compound as compared to the intensity at time t=0.

[8] = Excited-state pK*a of SNAFR-2 estimated using the Forster equation; assay type: physicochemical
Description: as §1

[9] = method 0-0 excitation, room temperature

- quantum yield of the anionic (NIR) emission ([1]; DMSO, by reference to rhodamine 6G in EtOH): 0.09
- Stokes shift ([1]; anionic form, excitation maximum 536 nm, emission 733 nm, aqueous solution): 197 nm and ~200 nm
- entry into cells (HEp2 cells [2]): readily enters cells
- pKa ([3]; absorption titration): 8.18 ± 0.03
- pKa ([3]; fluorescence titration): 8.1 ± 0.03
Structure (SMILES): O=c1ccc2c(-c3ccccc3)c3cc4ccc(O)cc4cc3oc-2c1 [SNAFR-6]
- aggregation ([3]; buffered media): Significant aggregation in buffered media was not seen
- cytotoxicity (cell viability) (HEp2 cells [4]): low and low cytotoxicity

- entry into cells (HEp2 cells [2]): readily entered HEp2 cells
- pKa ([5]; Abs, λisobestic 304, λ1/λ2 265/304, 50 mM phosphate buffer, read-out: pKa): 8.48
- pKa ([5]; Abs, λisobestic 304, λ1/λ2 296/304, 50 mM phosphate buffer, read-out: pKa): 8.54
- pKa ([5]; Abs, λisobestic 304, λ1/λ2 312/304, 50 mM phosphate buffer, read-out: pKa): 8.48
- pKa ([5]; Abs, λisobestic 327, λ1/λ2 312/327, 50 mM phosphate buffer, read-out: pKa): 8.54
- pKa ([5]; Abs, λisobestic 327, λ1/λ2 344/327, 50 mM phosphate buffer, read-out: pKa): 8.51
- pKa ([5]; Abs, λisobestic 327, λ1/λ2 380/327, 50 mM phosphate buffer, read-out: pKa): 8.51
- pKa ([5]; Abs, λisobestic 394, λ1/λ2 344/394, 50 mM phosphate buffer, read-out: pKa): 8.58
- pKa ([5]; Abs, λisobestic 394, λ1/λ2 380/394, 50 mM phosphate buffer, read-out: pKa): 8.68
- pKa ([5]; Abs, λisobestic 484, λ1/λ2 469/484, 50 mM phosphate buffer, read-out: pKa): 8.47
- pKa ([5]; Abs, λisobestic 484, λ1/λ2 511/484, 50 mM phosphate buffer, read-out: pKa): 8.54
- pKa ([5]; Abs, λisobestic 484, λ1/λ2 543/484, 50 mM phosphate buffer, read-out: pKa): 8.52
- pKa ([5]; Em, λex 325, λ1/λ2 541/597, 50 mM phosphate buffer, read-out: pKa): 8.32
- pKa ([5]; Em, λex 325, λ1/λ2 575/597, 50 mM phosphate buffer, read-out: pKa): 8.32
- pKa ([5]; Em, λex 325, λ1/λ2 627/597, 50 mM phosphate buffer, read-out: pKa): 8.38
- pKa ([5]; Em, λex 488, λ1/λ2 542/600, 50 mM phosphate buffer, read-out: pKa): 8.33
- pKa ([5]; Em, λex 488, λ1/λ2 575/600, 50 mM phosphate buffer, read-out: pKa): 8.36
- pKa ([5]; Em, λex 488, λ1/λ2 630/600, 50 mM phosphate buffer, read-out: pKa): 8.35
- pKa ([5]; Em, λex 514, λ1/λ2 539/595, 50 mM phosphate buffer, read-out: pKa): 8.31
- pKa ([5]; Em, λex 514, λ1/λ2 575/595, 50 mM phosphate buffer, read-out: pKa): 8.32
- pKa ([5]; Em, λex 514, λ1/λ2 623/595, 50 mM phosphate buffer, read-out: pKa): 8.34
- pKa ([5]; absorption spectra, phosphate buffer with 0.25% DMSO, read-out: average pKa-abs): 8.53 ± 0.06
- pKa ([5]; different excitation wavelengths, phosphate buffer with 0.25% DMSO, read-out: pKa values inferred from emission spectra): 8.31 to 8.38
- pKa ([5]; different isosbestic points, phosphate buffer with 0.25% DMSO, read-out: pKa values calculated from absorption spectra): 8.47 to 8.68
- pKa ([5]; emission spectra, phosphate buffer with 0.25% DMSO, read-out: average pKa-em): 8.34 ± 0.02
- λem (peak locations in the emission spectra) ([6]; DMSO): 560 nm
- Φ (quantum yield relative to rhodamine 6G in EtOH, Φ = 1) ([6]; DMSO): 0.33
- λem (peak locations in the emission spectra) ([6]; MeOH): 550 nm
- Φ (quantum yield relative to rhodamine 6G in EtOH, Φ = 1) ([6]; MeOH): 0.41
- pK*a value ([8]; across different methods to calculate the excitation frequency): 3.3 to 6.3
- pKa-abs* ([8]; method 0-0 absorption): 5.30
- pKa-em* ([8]; method 0-0 absorption): 5.11
- pKa-abs* [8, 9]: 4.73
- pKa-em* [8, 9]: 4.54
- pKa-abs* ([8]; method Absorption): 6.34
- pKa-em* ([8]; method Absorption): 6.15
- pKa-abs* ([8]; method Emission): 3.54
- pKa-em* ([8]; method Emission): 3.34
- pKa-abs* ([8]; method Excitation): 6.25
- pKa-em* ([8]; method Excitation): 6.05
Structure (SMILES): O=c1ccc2c(-c3ccccc3)c3ccc4cc(O)ccc4c3oc-2c1 [SNAFR-2]
- photostability (photobleaching decay) [7]: far more photostable than fluorescein; also recorded: excellent photostability; also recorded: considerably higher photostability
